The source of these data is US20070232532A1, “Use of cyclosporin alkene analogues for preventing or treating viral-induced disorders” (priority 2006, published 2007).

Values after ≈ are worked out from the molar mass of the structure shown.

Test [1] has as its system concanavalin A-stimulated splenocytes. Description: Concanavalin A-stimulated splenocyte assay. In kind it is cell-based, BALB/c mice. The note with it: for IC50: immunosuppressive activity, ConA-stimulated murine splenocytes, [3H]thymidine incorporation, 7 point curves. As for the experimental part: Concanavalin A-Stimulated Splenocyte Assay
Male BALB/c mice, at 5 to 7 weeks of age, were sacrificed by CO2 inhalation. Spleens were removed and dissociated by pushing through a nylon cell strainer. The splenocytes were washed in RPMI 1640/5% fetal calf serum (FCS) and pelleted at 400×g. Red blood cells were then lysed by resuspending the cell pellet in ACK lysis buffer (150 mM NH4Cl, 1 mM KHCO3, 0.1 mM EDTA, 3 mL per spleen) for 10 min at room temperature. After pelleting at 400×g, the cells were washed by resuspending in RPMI 1640/5% FCS and repelleting. The cell pellet was resuspended in RPMI 1640/5% FCS and again passed through a cell strainer to remove cell aggregates. The cells were then counted and adjusted to 2×10^6 cells/ml in RPMI 1640/10% FCS/50 μM 2-mercaptoethanol. Cell viability was assessed by Trypan blue staining. […] The cells were cultured in a 37° C. CO2 incubator for 2 days and then pulsed with 1 μCi of [^3H]thymidine for 6 hours. Cells were harvested onto filtermats with a TomTec 96 well plate harvester and lysed with H2O. The filtermat and scintillation fluid were sealed in a plastic sleeve. [^3H]thymidine incorporation was measured with a Wallac Trilux plate counter. Initial screens were done at a fixed value of 100 ng/ml test compound. IC50s were calculated from 7 point concentration-response curves using GraphPad software.

The test system of test [2] is hepatitis C virus replication. As to conditions: Paeshuyse et al. 2005; cited from earlier work.
The target of another test is cyclophilin A (Homo sapiens, UniProt P62937). The note with it: cited from earlier work.
The next test concerns HIV-1. The note with it: literature report; cited from earlier work.
The subject of the next test is calcineurin. The note with it: cited from earlier work.
Test [3] has as its system immunosuppressive activity. As to conditions: Mlynar et al. 1997; cited from earlier work.

Chain of cyclophilin A (P62937 whole entry): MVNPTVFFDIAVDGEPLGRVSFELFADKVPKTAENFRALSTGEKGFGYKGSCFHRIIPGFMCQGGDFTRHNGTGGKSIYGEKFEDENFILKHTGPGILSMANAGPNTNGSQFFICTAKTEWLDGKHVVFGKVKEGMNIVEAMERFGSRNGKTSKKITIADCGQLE

As to `CC[C@@H]1NC(=O)[C@H]([C@H](O)[C@H](C)C/C=C/Br)N(C)C(=O)[C@H](C(C)C)N(C)C(=O)[C@H](CC(C)C)N(C)C(=O)[C@H](CC(C)C)N(C)C(=O)[C@@H](C)NC(=O)[C@H](C)NC(=O)[C@H](CC(C)C)N(C)C(=O)[C@H](C(C)C)NC(=O)[C@H](CC(C)C)N(C)C(=O)CN(C)C1=O` (relative stereo) [Example 19, trans-cyclosporin vinyl bromide], the IC50 – broadly, the concentration that gives 50% inhibition – in test [1] is listed as 9 ng/mL.

Consider `C=C/C=C/C[C@@H](C)[C@@H](O)[C@H]1C(=O)N[C@@H](CC)C(=O)N(C)[C@H](CO)C(=O)N(C)[C@@H](CC(C)C)C(=O)N[C@@H](C(C)C)C(=O)N(C)[C@@H](CC(C)C)C(=O)N[C@@H](C)C(=O)N[C@H](C)C(=O)N(C)[C@@H](CC(C)C)C(=O)N(C)[C@@H](CC(C)C)C(=O)N(C)[C@@H](C(C)C)C(=O)N1C` (relative stereo) [Example 67, trans-cyclosporin diene], for which the half-maximal inhibitory concentration (IC50) in test [1] was 7 ng/mL (≈ 5.62 nM). Turning to `C/C=C/C[C@@H](C)[C@@H](O)[C@H]1C(=O)N[C@@H](CC)C(=O)N(C)[C@H](C)C(=O)N(CC)[C@@H](C(C)C)C(=O)N[C@@H](C(C)C)C(=O)N(C)[C@@H](CC(C)C)C(=O)N[C@@H](C)C(=O)N[C@H](C)C(=O)N(C)[C@@H](CC(C)C)C(=O)N(C)[C@@H](CC(C)C)C(=O)N(C)[C@@H](C(C)C)C(=O)N1C` [DEBIO-025], in test [2], the “inhibition of hepatitis C virus replication” value is “potent and selective inhibition of hepatitis C virus replication”. Besides, at cyclophilin A, the “binding affinity for cyclophilin A” value is “potent binding affinity”. As for `CC[C@@H]1NC(=O)[C@H]([C@H](O)[C@H](C)CC=CC(F)(F)F)N(C)C(=O)[C@H](C(C)C)N(C)C(=O)[C@H](CC(C)C)N(C)C(=O)[C@H](CC(C)C)N(C)C(=O)[C@@H](C)NC(=O)[C@H](C)NC(=O)[C@H](CC(C)C)N(C)C(=O)[C@H](C(C)C)NC(=O)[C@H](CC(C)C)N(C)C(=O)CN(C)C1=O` [Example 31, cyclosporin fluoride], the “IC50” value in test [1] worked out at 38 ng/mL (≈ 30.2 nM).

`CC[C@@H]1NC(=O)[C@H]([C@H](O)[C@H](C)CC=CCF)N(C)C(=O)[C@H](C(C)C)N(C)C(=O)[C@H](CC(C)C)N(C)C(=O)[C@H](CC(C)C)N(C)C(=O)[C@@H](C)NC(=O)[C@H](C)NC(=O)[C@H](CC(C)C)N(C)C(=O)[C@H](C(C)C)NC(=O)[C@H](CC(C)C)N(C)C(=O)CN(C)C1=O` [Example 34, cyclosporin allylic fluoride]: in test [1], the “IC50” value was 12 ng/mL (≈ 9.83 nM). Turning to `C/C=C/C[C@@H](C)[C@@H](O)[C@H]1C(=O)N[C@@H](CC)C(=O)N(C)CC(=O)N(C)[C@@H]([C@@H](C)CC)C(=O)N[C@@H](C(C)C)C(=O)N(C)[C@@H](CC(C)C)C(=O)N[C@@H](C)C(=O)N[C@H](C)C(=O)N(C)[C@@H](CC(C)C)C(=O)N(C)[C@@H](CC(C)C)C(=O)N(C)[C@@H](C(C)C)C(=O)N1C` [SDZ NIM 811], in the test with HIV-1, the anti-HIV-1 activity result is “potent and selective anti-HIV-1 activity”. For the same compound, the inhibition of calcineurin result in the test on calcineurin is reported as “does not inhibit calcineurin”. Besides, in test [3], the immunosuppressive activity result is recorded as “completely devoid of immunosuppressive activity”.

For cyclosporin vinyl iodide [Example 6], in test [1], the “IC50” value was determined as 11 ng/mL. Still for that read-out and setting: the value for trans-cyclosporin diene-d2 [Example 69] was 4 ng/mL. “trans-deuterated cyclosporin vinyl iodide [Example 9]”: the “potency in immunosuppression compared to cyclosporin A” value in test [1] (FIG. 1, ConA-stimulated splenocyte assay) is “enhanced potency”. In addition, in test [1], the “IC50” value stood at 7 ng/mL.
